Experimental data published in patent publication US11999737B2, “Kinase inhibitors and related methods of use” (Duke University, priority 2014, dated 2024).

Target: T1, IRAK4 (Homo sapiens, UniProt Q9NWZ3)
T1 sequence (Q9NWZ3 1-460): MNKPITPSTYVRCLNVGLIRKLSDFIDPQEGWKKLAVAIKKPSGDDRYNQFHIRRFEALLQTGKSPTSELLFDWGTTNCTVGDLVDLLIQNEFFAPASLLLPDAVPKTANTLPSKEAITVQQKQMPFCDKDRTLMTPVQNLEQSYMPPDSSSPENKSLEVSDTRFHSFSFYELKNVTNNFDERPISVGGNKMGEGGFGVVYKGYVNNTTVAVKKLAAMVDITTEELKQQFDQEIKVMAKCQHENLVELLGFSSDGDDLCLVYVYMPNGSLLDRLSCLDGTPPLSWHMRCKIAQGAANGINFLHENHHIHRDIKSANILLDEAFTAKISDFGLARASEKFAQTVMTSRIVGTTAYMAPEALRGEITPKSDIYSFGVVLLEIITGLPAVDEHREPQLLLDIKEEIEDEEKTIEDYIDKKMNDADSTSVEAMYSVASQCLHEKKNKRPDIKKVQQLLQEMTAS
Experiment: 33P-ATP filter-binding kinase assay

CC(Sc1nc2c(cnn2-c2cccc(Cl)c2)c(=O)[nH]1)C(N)=O (stereo not drawn) [HS38] was tested, and the “fold less potent than against DAPK1 and PIM3” value was about 10 fold, the IC50 (mean ± S.D., n = 2) was 1400 ± 400 nM and the activity at 10 µM (read-out: % Activity (10 μM HS38)) was 20%.
